Test results as given in PMC9127186, “Molecular Basis Underlying Hepatobiliary and Renal Excretion of Phenolic Acids of Salvia miltiorrhiza Roots (Danshen)” (Frontiers in Pharmacology, 2022).

Target: T1, human OATP1B1 (Homo sapiens, UniProt Q9Y6L6)
T1 sequence (Q9Y6L6 1-691): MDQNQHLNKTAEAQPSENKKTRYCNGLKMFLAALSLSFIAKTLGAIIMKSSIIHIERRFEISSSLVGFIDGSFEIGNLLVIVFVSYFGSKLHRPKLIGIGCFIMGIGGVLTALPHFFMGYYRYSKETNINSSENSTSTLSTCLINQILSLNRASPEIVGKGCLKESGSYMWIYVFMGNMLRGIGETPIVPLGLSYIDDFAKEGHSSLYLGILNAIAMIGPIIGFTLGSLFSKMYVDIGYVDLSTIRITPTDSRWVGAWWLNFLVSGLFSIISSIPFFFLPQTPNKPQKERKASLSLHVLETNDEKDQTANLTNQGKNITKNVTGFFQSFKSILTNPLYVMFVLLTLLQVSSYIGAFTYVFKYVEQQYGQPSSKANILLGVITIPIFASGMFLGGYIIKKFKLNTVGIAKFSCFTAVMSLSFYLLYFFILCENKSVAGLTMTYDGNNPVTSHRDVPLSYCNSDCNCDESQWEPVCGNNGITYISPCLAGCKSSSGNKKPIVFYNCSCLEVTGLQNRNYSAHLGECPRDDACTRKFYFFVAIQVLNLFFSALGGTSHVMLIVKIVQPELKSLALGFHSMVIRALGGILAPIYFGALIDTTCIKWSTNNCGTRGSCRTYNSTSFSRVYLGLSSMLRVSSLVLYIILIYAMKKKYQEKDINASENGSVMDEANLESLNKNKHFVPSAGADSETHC
Test: Cellular transport assay, HEK-293 cells expressing human OATP1B1
Conditions: for TransportTC/TransportMC ratio (net transport ratio): 10 min
Outline: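 First, HEK-293 cells received either the expression plasmid or empty vector by lipofection; 48 h later they were incubated with test compound for 5 min.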

[1] = Danshen phenolic acid at 100 μM final concentration, human OATP1B1-transfected vs mock cells
[2] = human hepatic sinusoidal uptake OATP1B1, 5 min incubation, concentrations in Table 1

Molecule	substrate of human OATP1B1	TransportTC/TransportMC ratio (net transport ratio) [1]	microsomal CLint (human) [µL/min/mg]	K m [2] [µM]	CLint (human hepatic sinusoidal uptake OATP1B1) [μL/min/mg protein]	V max [2] [pmol/min/mg protein]	TransportTC/TransportMC ratio (net transport ratio) (human, 100 μM)	microsomal CLint (human, other cell line) [µL/min/mg]
O=C(O)Cc1c(/C=C/C(=O)O[C@H](Cc2ccc(O)c(O)c2)C(=O)O)ccc(O)c1O [Salvianolic acid D, salvianolic acid D]	substrates	5.38 ± 0.83	0.22	403 ± 85	–	–	–	–
O=C(/C=C/c1ccc(O)c2c1[C@H](C(=O)O)[C@@H](c1ccc(O)c(O)c1)O2)O[C@H](Cc1ccc(O)c(O)c1)C(=O)O [Lithospermic acid, lithospermic acid]	substrates	3.99 ± 0.24	0.06	428 ± 67	–	–	–	–
salvianolic acid B	substrates	5.16 ± 1.30	–	58.9 ± 6.2	0.46	28.1 ± 1.2	–	–
O=C(O)c1ccc(O)c(O)c1 [Protocatechuic acid, protocatechuic acid]	–	0.83 ± 0.14	–	–	–	–	–	–
O=C(/C=C/c1ccc(O)c(O)c1/C=C/c1ccc(O)c(O)c1)O[C@H](Cc1ccc(O)c(O)c1)C(=O)O [Salvianolic acid A, salvianolic acid A]	not a substrate	–	–	–	–	–	1.21 ± 0.33	–
O=C(/C=C/c1ccc(O)c(O)c1)O[C@H](Cc1ccc(O)c(O)c1)C(=O)O [Rosmarinic acid, rosmarinic acid]	substrates	–	–	–	–	–	4.00 ± 0.43	0.07
